Data reported in patent US4728733A, “C-3' thiadiazinyl cephalosporin analogs” (American Home Products Corporation, priority 1985, dated 1988).
Converted amounts (≈) assume the structure as drawn. Where a name gives a salt, the structure may show the parent alone.

What was measured:
Format in all cases: cell-based
[1] = system: Streptococcus faecalis ATCC 29212; test: Antibacterial activity, MIC, procedure B (agar dilution); conditions: Enterococcus faecalis, ATCC29212
Description: (§1) The compounds of the invention are tested for their antibacterial activity. The test can be carried out in two ways:
(§2) B. The organisms used in the test comprise the following: Staphylococcus aureus (penicillin-sensitive and resistant), Pseudomonas aeruginosa, Escherichia coli, […], Bordetella bronchiseptica, Proteus vulgaris, P. mirabilis, Acinetobacter calcoaceticus.
(§3) Test organisms may be added or deleted in order to reflect current clinical patterns of antibiotic susceptibility or shifts in pathogenic potential.
(§4) Organisms are normally grown for 18 hours in Brain Heart Infusion at 35° C. Cultures are adjusted with saline to MacFarland No. 1.5 standard prior to use.
(§5) Stock concentrations (e.g. 2,5000 μg or units per ml) are prepared in a suitable vehicle. Two-fold dilutions are made. One ml quantities of each dilution are incorporated in 9 ml of the appropriate agar (e.g. Seed) in sterile Petri plates. The hardened surface is inoculated with test organisms by use of a Steers replicating device. The plates are incubated (e.g. 18 hours at 35° C.) and activity is determined.

[2] = system: Enterobacter cloacae ATCC 13047; test: as above; conditions: ATCC13047
Description: as §1, §2, §3, §4, §5

[3] = system: Proteus vulgaris A 84354 1; test: as above; conditions: A843541
Description: as §1, §2, §3, §4, §5

[4] = system: Klebsiella pneunomiae KL-1; test: as above; conditions: KL1
Description: as §1, §2, §3, §4, §5

[5] = system: Staphylococcus aureus ATCC 29213; test: as above; conditions: ATCC29213
Description: as §1, §2, §3, §4, §5

[6] = system: Serratia marcescens ATCC 13880; test: as above; conditions: ATCC13880
Description: as §1, §2, §3, §4, §5

[7] = system: Escherichia coli ATCC 25922; test: as above; conditions: ATCC25922
Description: as §1, §2, §3, §4, §5

[8] = system: Pseudomonas aeruginosa ATCC 27853; test: as above; conditions: ATCC27853
Description: as §1, §2, §3, §4, §5

[9] = system: Streptococcus faecalis ATCC 29212; test: Antibacterial activity, MIC, procedure A (broth dilution); conditions: Enterococcus faecalis, ATCC29212
Description: as §1
(§6) A. The organisms used in the test comprise the following: Staphylococcus aureus (penicillin-sensitive and resistant), Pseudomonas aeruginosa, Escherichia coli, […], Bordetella bronchiseptica, Proteus vulgaris, P. mirabilis, Acinetobacter calcoaceticus.
as §3
(§7) Stock solution of appropriate medium (e.g. Mueller-Hinton Broth) is sterilized. Starting at a predetermined concentration (e.g. 250 μg/ml), two-fold dilutions are made with the Dynatech Automatic Diluter in a Microtiter plate of 8 rows of 12 wells each in which 11 wells in each row contain 50 μl of medium (e.g. Mueller-Hinton Broth) and the 12th well contains in 100 μl an aliquot of the compound to be tested. The diluted plates are inoculated using the Dynatech Automatic Inoculator which delivers the final inoculum (e.g. 10^5 cfu/ml of a seven-hour culture which has been incubated at 35° C.).
(§8) Plates are sealed with tape and incubated (e.g. 18 hours at 35° C.).

[10] = system: Enterobacter cloacae ATCC 13047; test: as above; conditions: ATCC13047
Description: as §1, §6, §3, §7, §8

[11] = system: Proteus vulgaris A 84354 1; test: as above; conditions: A843541
Description: as §1, §6, §3, §7, §8

[12] = system: Klebsiella pneunomiae KL-1; test: as above; conditions: KL1
Description: as §1, §6, §3, §7, §8

[13] = system: Staphylococcus aureus ATCC 29213; test: as above; conditions: ATCC29213
Description: as §1, §6, §3, §7, §8

[14] = system: Serratia marcescens ATCC 13880; test: as above; conditions: ATCC13880
Description: as §1, §6, §3, §7, §8

[15] = system: Escherichia coli ATCC 25922; test: as above; conditions: ATCC25922
Description: as §1, §6, §3, §7, §8

[16] = system: Pseudomonas aeruginosa ATCC 27853; test: as above; conditions: ATCC27853
Description: as §1, §6, §3, §7, §8

Compound CO/N=C(\C(=O)N[C@@H]1C(=O)N2C(C(=O)OC(C)(C)C)=C(CN3C(=O)C(C#N)=CNS3(=O)=O)CS[C@H]12)c1csc(N)n1 [Example 1 B, (6R,7R)-7-[[(Z)-(2-Amino-4-thiazolyl)(methoxyimino)acetyl]amino]-3-[(4-cyano-3,6-dihydro-3-oxo-2H-1,2,6-thiadiazin-2-yl)methyl]-8-oxo-5-thia-1-azabicyclo[4.2.0]oct-2-ene-2-carboxylic acid 1,1-dimethylethyl ester S^3, S^3-dioxide] has an MIC [1] of 256 µg/mL (≈ 410 µM), an MIC [2] of 64 µg/mL (≈ 102 µM) and an MIC [3] of 0.25 µg/mL (≈ 0.4 µM). For the same compound, the MIC [4] was 1 µg/mL (≈ 1.6 µM), the MIC [5] was 64 µg/mL (≈ 102 µM) and the MIC [6] was 32 µg/mL (≈ 51.2 µM). For the same compound, the MIC [7] was 2 µg/mL (≈ 3.2 µM) and the MIC [8] was 256 µg/mL (≈ 410 µM).
For CO/N=C(\C(=O)N[C@@H]1C(=O)N2C(C(=O)O)=C(CN3C(=O)C(C#N)=CNS3(=O)=O)CS[C@H]12)c1csc(N)n1 [Example 1 C, (6R,7R)-7-[[(Z)-(2-Amino-4-thiazolyl)(methoxyimino)acetyl]amino]-3-[(4-cyano-3,6-dihydro-3-oxo-2H-1,2,6-thiadiazin-2-yl)methyl]-8-oxo-5-thia-1-azabicyclo[4.2.0]oct-2-ene-2-carboxylic acid, S^3, S^3-dioxide, trifluoroacetate salt], the MIC [1] was 128 µg/mL, the MIC [2] was 32 µg/mL and the MIC [3] was 1 µg/mL. The MIC [4] was 0.125 µg/mL, the MIC [5] was 32 µg/mL and the MIC [6] was 8 µg/mL. The MIC [7] was 1 µg/mL and the MIC [8] was 256 µg/mL.
CO/N=C(\C(=O)N[C@@H]1C(=O)N2C(C(=O)OC(C)(C)C)=C(CN3C(=O)c4ccccc4NS3(=O)=O)CS[C@H]12)c1csc(N)n1 [Example 2 B, (6R,7R)-7-[[(Z)-(2-Amino-4-thiazolyl)(methoxyimino)acetyl]amino]-3-[(1,4-dihydro-4-oxo-3H-2,1,3-benzothiadiazin-3-yl)methyl]-8-oxo-5-thia-1-azabicyclo[4.2.0]oct-2-ene-2-carboxylic acid 1,1-dimethylethyl ester, S^3, S^3-dioxide] showed an MIC [9] of 128 µg/mL (≈ 197 µM), an MIC [10] of 64 µg/mL (≈ 98.5 µM) and an MIC [11] of 1 µg/mL (≈ 1.54 µM). The MIC [12] was 4 µg/mL (≈ 6.16 µM), the MIC [13] was 64 µg/mL (≈ 98.5 µM) and the MIC [14] was 64 µg/mL (≈ 98.5 µM). For the same compound, the MIC [15] was 8 µg/mL (≈ 12.3 µM) and the MIC [16] was 128 µg/mL (≈ 197 µM).
In the case of CO/N=C(\C(=O)N[C@@H]1C(=O)N2C(C(=O)O)=C(CN3C(=O)c4ccccc4NS3(=O)=O)CS[C@H]12)c1csc(N)n1 [Example 2 C, (6R,7R)-7-[[(Z)-(2-Amino-4-thiazolyl)(methoxyimino)acetyl]amino]-3-[(1,4-dihydro-4-oxo-3H-2,1,3-benzothiadiazin-3-yl)methyl]-8-oxo-5-thia-1-azabicyclo[4.2.0]oct-2-ene-2-carboxylic acid S^3, S^3-dioxide, trifluoroacetate salt], the MIC [9] is reported as 128 µg/mL, the MIC [10] is reported as 64 µg/mL and the MIC [11] is reported as 0.25 µg/mL. The MIC [12] was 2 µg/mL, the MIC [13] was 32 µg/mL and the MIC [14] was 16 µg/mL. It also gave an MIC [15] of 4 µg/mL and an MIC [16] of 128 µg/mL.
